Here are results for three compounds from ChEMBL document CHEMBL4673355, “Thiacalixarene based quaternary ammonium salts as promising antibacterial agents” (Bioorg Med Chem, 2021).

Values after ≈ are worked out from the molar mass of the structure shown. Values joined by “and” are separate entries in the source; they are usually repeats but may differ in a detail not shown here. Equal values may be shown once.

The subject of one data set is Enterococcus faecalis. Kind of data set: Antibacterial activity against Enterococcus faecalis ATCC 29212 by CLSI broth microdilution method. The format is functional. For orientation: Broth dilution looks for growth in wells or tubes with falling amounts of substance.
For data set [1], the system named is Staphylococcus epidermidis. Put plainly: Antibacterial activity against Staphylococcus epidermidis assessed as reduction in bacterial growth incubated for 24 hrs by CLSI broth microdilution method. As to conditions: Staphylococcus epidermidis, read-out: MIC. The format is functional.
In data set [2] the test system is Bacillus subtilis. Kind of data set: Antibacterial activity against Bacillus subtilis 168 assessed as reduction in bacterial growth incubated for 24 hrs by CLSI broth microdilution method. It counts as functional.
Data set [3] deals with Escherichia coli. Kind of data set: Antibacterial activity against Escherichia coli ATCC 25922 assessed as reduction in bacterial growth incubated for 24 hrs by CLSI broth microdilution method. The format is functional. As to conditions: Escherichia coli, ATCC 25922, 24 h, read-out: MIC.
Data set [4] in a line: Selectivity index, ratio of CC50 for human HSF cells to MIC for Klebsiella pneumoniae ATCC 1813. It counts as toxicity. As to conditions: HSF cells.
Data set [5] can be described thus: Selectivity index, ratio of CC50 for human HSF cells to MIC for Staphylococcus epidermidis. The format is toxicity. As to conditions: HSF cells.
The nature of data set [6]: Selectivity index, ratio of CC50 for human HSF cells to MIC for Staphylococcus aureus ATCC 29213. The format is toxicity. As to conditions: HSF cells.
For data set [7], the system named is Pseudomonas aeruginosa. Kind of data set: Antibacterial activity against Pseudomonas aeruginosa ATCC 27853 assessed as reduction in bacterial growth incubated for 24 hrs by CLSI broth microdilution method. The format is functional. As to conditions: Pseudomonas aeruginosa, ATCC 27853, 24 h, read-out: MIC.
The nature of data set [8]: Selectivity index, ratio of CC50 for human HSF cells to MIC for Escherichia coli ATCC 25922. It counts as toxicity.
Data set [9] in a line: Selectivity index, ratio of CC50 for human HSF cells to MIC for Pseudomonas aeruginosa ATCC 27853. The format is toxicity. As to conditions: HSF cells.
For data set [10], the system named is Klebsiella pneumoniae. Put plainly: Antibacterial activity against Klebsiella pneumoniae ATCC 1813 assessed as reduction in bacterial growth incubated for 24 hrs by CLSI broth microdilution method. As to conditions: Klebsiella pneumoniae, ATCC 1813, 24 h, read-out: MIC. It counts as functional.
Data set [11] in a line: Selectivity index, ratio of CC50 for human HSF cells to MIC for Bacillus subtilis 168. It counts as toxicity. As to conditions: HSF cells.
Data set [12] concerns Staphylococcus aureus. Kind of data set: Antibacterial activity against Staphylococcus aureus ATCC 29213 assessed as reduction in bacterial growth incubated for 24 hrs by CLSI broth microdilution method. The format is functional. As to conditions: Staphylococcus aureus, ATCC 29213, 24 h, read-out: MIC.
The nature of data set [13]: Cytotoxicity against human HSF cells assessed as reduction in cell viability incubated for 72 hrs by MTT assay. The format is cell-based, HSF (VGS).
The test system of data set [14] is Staphylococcus aureus. Put plainly: Bactericidal activity against Staphylococcus aureus ATCC 29213 assessed as reduction in bacterial growth incubated for 24 hrs followed by replating on MH broth and further incubated for 24 hrs by CLSI broth microdilution method. As to conditions: Staphylococcus aureus, ATCC 29213; time 48 hrs; read-out: MBC. The format is functional.

For data set [15], the system named is Klebsiella sp. Put plainly: Antibacterial activity against […] resistant Klebsiella sp. clinical isolate 12 assessed as reduction in bacterial growth incubated for 24 hrs by CLSI broth microdilution method. It counts as functional.
Data set [16] concerns Acinetobacter. Put plainly: Antibacterial activity against […] resistant Acinetobacter spp. clinical isolate 3 assessed as reduction in bacterial growth incubated for 24 hrs by CLSI broth microdilution method. It counts as functional.
Data set [17] is described as follows: Antibacterial activity against […] resistant Moraxella sp.764 clinical isolate assessed as reduction in bacterial growth incubated for 24 hrs by CLSI broth microdilution method. The format is functional. As to conditions: Moraxella catarrhalis.
In data set [18] the test system is Acinetobacter. Kind of data set: Antibacterial activity against […] resistant Acinetobacter spp. clinical isolate 5 assessed as reduction in bacterial growth incubated for 24 hrs by CLSI broth microdilution method. The format is functional.
Data set [19] deals with Staphylococcus haemolyticus. Kind of data set: Antibacterial activity against methicillin- resistant Staphylococcus haemolyticus 837 assessed as reduction in bacterial growth incubated for 24 hrs by CLSI broth microdilution method. The format is functional.
Data set [20] deals with Klebsiella pneumoniae. Kind of data set: Bactericidal activity against Klebsiella pneumoniae ATCC 1813 assessed as reduction in bacterial growth incubated for 24 hrs followed by replating on MH broth and further incubated for 24 hrs by CLSI broth microdilution method. The format is functional.
Data set [21] concerns Staphylococcus aureus. Put plainly: Antibacterial activity against methicillin- resistant Staphylococcus aureus 25 clinical isolate assessed as reduction in bacterial growth incubated for 24 hrs by CLSI broth microdilution method. It counts as functional.
Data set [22] has as its system Acinetobacter. Kind of data set: Antibacterial activity against […] resistant Acinetobacter spp. clinical isolate 1 assessed as reduction in bacterial growth incubated for 24 hrs by CLSI broth microdilution method. The format is functional.
Data set [23] deals with Staphylococcus intermedius. Kind of data set: Antibacterial activity against methicillin- resistant Staphylococcus intermedius 1143 clinical isolate assessed as reduction in bacterial growth incubated for 24 hrs by CLSI broth microdilution method. It counts as functional.
The test system of data set [24] is Klebsiella sp. Kind of data set: Antibacterial activity against […] resistant Klebsiella sp. clinical isolate 11 assessed as reduction in bacterial growth incubated for 24 hrs by CLSI broth microdilution method. It counts as functional.
Data set [25] relates to Staphylococcus aureus. Put plainly: Antibacterial activity against methicillin- resistant Staphylococcus aureus 983 clinical isolate assessed as reduction in bacterial growth incubated for 24 hrs by CLSI broth microdilution method. The format is functional.
Data set [26] deals with Staphylococcus aureus. Kind of data set: Antibacterial activity against methicillin- resistant Staphylococcus aureus 2020 clinical isolate assessed as reduction in bacterial growth incubated for 24 hrs by CLSI broth microdilution method. It counts as functional.
Data set [27] has as its system Bacillus subtilis. Put plainly: Bactericidal activity against Bacillus subtilis 168 assessed as reduction in bacterial growth incubated for 24 hrs followed by replating on MH broth and further incubated for 24 hrs by CLSI broth microdilution method. The format is functional. As to conditions: Bacillus subtilis, 168, 24 h.
Data set [28] relates to Pseudomonas aeruginosa. Put plainly: Bactericidal activity against Pseudomonas aeruginosa ATCC 27853 assessed as reduction in bacterial growth incubated for 24 hrs followed by replating on MH broth and further incubated for 24 hrs by CLSI broth microdilution method. The format is functional.
For the next data set, the system named is Proteus sp. Kind of data set: Antibacterial activity against […] resistant Proteus sp. clinical isolate 17 assessed as reduction in bacterial growth incubated for 24 hrs by CLSI broth microdilution method. It counts as functional. As to conditions: Proteus sp. (in: enterobacteria).
A short description of data set [29]: Antibacterial activity against […] resistant Moraxella sp.765 clinical isolate assessed as reduction in bacterial growth incubated for 24 hrs by CLSI broth microdilution method. As to conditions: Moraxella catarrhalis. The format is functional.
The subject of data set [30] is Escherichia coli. Kind of data set: Bactericidal activity against Escherichia coli ATCC 25922 assessed as reduction in bacterial growth incubated for 24 hrs followed by replating on MH broth and further incubated for 24 hrs by CLSI broth microdilution method. It counts as functional.
Data set [31] relates to Staphylococcus aureus. Put plainly: Antibacterial activity against methicillin- resistant Staphylococcus aureus 967 clinical isolate assessed as reduction in bacterial growth incubated for 24 hrs by CLSI broth microdilution method. The format is functional.
In data set [32] the test system is Staphylococcus epidermidis. Put plainly: Bactericidal activity against Staphylococcus epidermidis assessed as reduction in bacterial growth incubated for 24 hrs followed by replating on MH broth and further incubated for 24 hrs by CLSI broth microdilution method. The format is functional. As to conditions: Staphylococcus epidermidis, read-out: MBC.
A short description of data set [33]: Antibacterial activity against […] resistant Moraxella sp.829 clinical isolate assessed as reduction in bacterial growth incubated for 24 hrs by CLSI broth microdilution method. It counts as functional. As to conditions: Moraxella catarrhalis.
For a further data set, the system named is Pseudomonas. Put plainly: Antibacterial activity against methicillin- resistant Pseudomonas spp. clinical isolate 6 assessed as reduction in bacterial growth incubated for 24 hrs by CLSI broth microdilution method. It counts as functional.
Where [34] appears, read: Bacillus subtilis, 168, 24 h, read-out: MIC.

As usually defined, the MIC is the lowest concentration that inhibits growth of the organism. For the compound `CC(C)(C)c1cc2c(OCCCNC(=N)N)c(c1)Cc1cc(C(C)(C)C)cc(c1OCCCNC(=N)N)Cc1cc(C(C)(C)C)cc(c1OCCCNC(=N)N)Cc1cc(C(C)(C)C)cc(c1OCCCNC(=N)N)C2.O=C(O)C(F)(F)F.O=C(O)C(F)(F)F.O=C(O)C(F)(F)F.O=C(O)C(F)(F)F`, the MIC with Enterococcus faecalis was 4 µg/mL and 8 µg/mL; with Enterococcus faecalis (Enterococcus faecalis, ATCC 29212, read-out: MIC), 8 µg/mL.
What is called CC50 is the concentration giving 50% cytotoxicity. For the compound `[H]/N=C(\N/C(=N/[H])NCCCCCCNC(=N)NC(=N)Nc1ccc(Cl)cc1)Nc1ccc(Cl)cc1` [CHLORHEXIDINE], the MIC turned out to be 1 µg/mL (≈ 1.98 µM) in data set [1]; 2 µg/mL (≈ 3.96 µM) in the data set on Bacillus subtilis [2] (setting [34]); 1 µg/mL (≈ 1.98 µM) with Escherichia coli [3]; 4 µg/mL (≈ 7.91 µM) with Pseudomonas aeruginosa [7]; 2 µg/mL (≈ 3.96 µM) with Klebsiella pneumoniae [10]; 2 µg/mL (≈ 3.96 µM) with Staphylococcus aureus [12]. Besides, the selectivity ratio in data set [4] was 2.74; in data set [5], 5.48; in data set [6], 2.74; in data set [8], 5.48; in [9], 1.37; in [11], 2.74. Moreover, the CC50 at 72 h in data set [13] worked out at 5.48 µg/mL (≈ 10.8 µM).
By MBC is commonly meant the lowest tested concentration that kills the bacteria rather than only halting them. For `CCCCCCCC[N+](C)(C)CCCNC(=O)COc1c2cc(C(C)(C)C)cc1Sc1cc(C(C)(C)C)cc(c1OCC(=O)NCCC[N+](C)(C)CCCCCCCC)Sc1cc(C(C)(C)C)cc(c1OCC(=O)NCCC[N+](C)(C)CCCCCCCC)Sc1cc(C(C)(C)C)cc(c1OCC(=O)NCCC[N+](C)(C)CCCCCCCC)S2.[Cl-].[Cl-].[Cl-].[Cl-]`, the MBC with Staphylococcus aureus [14] was 1 µg/mL; with Klebsiella pneumoniae [20] it was 32 µg/mL; in the data set on Bacillus subtilis [27], 16 µg/mL; in the data set with Pseudomonas aeruginosa [28], 32 µg/mL; in the data set on Escherichia coli [30], 16 µg/mL; in [32] it was 2 µg/mL. The MIC with Klebsiella sp. [15] stood at 16 µg/mL; with Bacillus subtilis [2] (24 h), 4 µg/mL; with Bacillus subtilis [2] (setting [34]), 2 µg/mL; in the data set on Acinetobacter [16], 16 µg/mL; in [17] it was 16 µg/mL; in the data set with Acinetobacter [18], 16 µg/mL. Further, the MIC stood at 16 µg/mL in data set [19]; 4 µg/mL with Staphylococcus aureus [21]; 8 µg/mL with Acinetobacter [22]; 2 µg/mL in data set [23]; 16 µg/mL with Klebsiella sp. [24]; 16 µg/mL with Staphylococcus aureus [25]. The MIC amounted to 16 µg/mL in the data set with Staphylococcus aureus [26]; 64 µg/mL with Proteus sp.; 16 µg/mL in data set [29]; 16 µg/mL in the data set with Staphylococcus aureus [31]; 16 µg/mL in data set [33]; 16 µg/mL in the data set with Pseudomonas.
